Assay results as given in patent publication US11197933B2, “Polysubunit opioid prodrugs resistant to overdose and abuse” (Elysium Therapeutics, Inc., priority 2017, dated 2021).

Tests used:
[1] = target: T1, trypsin (Bos taurus, UniProt P00760); experiment: Inhibition of trypsin-catalyzed hydrolysis of BANA (percent BANA remaining vs. time); type: biochemical; conditions: pH 7.4, 37° C.; for Ability to inhibit trypsin (result in words): increasing concentrations, BANA substrate
T1 construct: gene PRSS1
T1 sequence (P00760 24-246): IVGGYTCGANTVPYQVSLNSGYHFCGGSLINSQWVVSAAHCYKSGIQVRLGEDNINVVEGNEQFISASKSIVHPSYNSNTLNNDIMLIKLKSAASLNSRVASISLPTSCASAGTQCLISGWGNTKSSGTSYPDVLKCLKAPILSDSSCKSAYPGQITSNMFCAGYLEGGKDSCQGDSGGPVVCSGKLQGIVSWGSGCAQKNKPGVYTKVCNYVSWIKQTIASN
Description: This example describes in vitro experiments with a compound of the disclosure to provide a mechanism of overdose protection.
The effect of increasing concentrations of compounds II-D-11, II-D-23, II-D-71c and II-D-71b on the rate and extent of the trypsin-catalyzed hydrolysis of a commercially available trypsin substrate Nα-Benzoyl-L-arginine 4-nitroanilide hydrochloride (BANA) was evaluated in the presence of trypsin (2,000 BAEE activity) in a pH 7.4 phosphate buffer at 37° C. in vitro. Both buffer solution alone (i.e. no trypsin) and trypsin containing buffer solution (i.e. no test compounds) controls were run contemporaneously.

[2] = Hydrocodone and naltrexone release from II-D-71c-NTX in 0.5M aqueous NaOH at 60° C. (tampering); type: physicochemical; conditions: for Percent HC Released / Percent NTX Released: 60° C. incubation in 0.5M aqueous NaOH
Description: H-D-71c-NTX was incubated in a strongly basic solution of 0.5M aqueous sodium hydroxide at 60° C. for 300 minutes. The solution was analyzed for the presence of both hydrocodone and naltrexone at specified time points using LC/MS analysis. […] The data from this study is presented graphically in FIG. 2.

COc1ccc2c3c1OC1C(OC(=O)N4CCC(C(=O)NCCCCC(NC(=O)OCc5ccccc5)C(=O)NCCOc5ccc(C(=O)Oc6ccc7cc(C(=N)N)ccc7c6)cc5)CC4CNC(=O)C(CCCNC(=N)N)NC(=O)CNC(C)=O)=CCC4C(C2)N(C)CCC314 [II-D-23]
Percent BANA remaining ([1]; 1 uM compound, 2 minutes): 100% | Percent BANA remaining ([1]; 1 uM compound, 14 minutes): 20% | Percent BANA remaining ([1]; 1 uM compound, 24 minutes): 11% | Percent BANA remaining ([1]; 1 uM compound, 32 minutes): 0% | Percent BANA remaining ([1]; 1 uM compound, 70 minutes): 0% | Percent BANA remaining ([1]; 1 uM compound, 100 minutes): 0% | Percent BANA remaining ([1]; 1 uM compound, 145 minutes): 0% | Percent BANA remaining ([1]; 1 uM compound, 156 minutes): 0% | Percent BANA remaining ([1]; 1 uM compound, 247 minutes): 0% | Percent BANA remaining ([1]; 10 uM compound, 2 minutes): 100% | Percent BANA remaining ([1]; 10 uM compound, 14 minutes): 98% | Percent BANA remaining ([1]; 10 uM compound, 24 minutes): 96% | Percent BANA remaining ([1]; 10 uM compound, 32 minutes): 98% | Percent BANA remaining ([1]; 10 uM compound, 70 minutes): 97% | Percent BANA remaining ([1]; 10 uM compound, 100 minutes): 95% | Percent BANA remaining ([1]; 10 uM compound, 145 minutes): 96% | Percent BANA remaining ([1]; 10 uM compound, 156 minutes): 96% | Percent BANA remaining ([1]; 10 uM compound, 247 minutes): 93% | Percent BANA remaining ([1]; 100 uM compound, 2 minutes): 100% | Percent BANA remaining ([1]; 100 uM compound, 14 minutes): 99% | Percent BANA remaining ([1]; 100 uM compound, 24 minutes): 100% | Percent BANA remaining ([1]; 100 uM compound, 32 minutes): 100% | Percent BANA remaining ([1]; 100 uM compound, 70 minutes): 100% | Percent BANA remaining ([1]; 100 uM compound, 100 minutes): 100% | Percent BANA remaining ([1]; 100 uM compound, 145 minutes): 100% | Percent BANA remaining ([1]; 100 uM compound, 156 minutes): 100% | Percent BANA remaining ([1]; 100 uM compound, 247 minutes): 100% | Percent BANA remaining ([1]; 1 mM compound, 2 minutes): 100% | Percent BANA remaining ([1]; 1 mM compound, 14 minutes): 99% | Percent BANA remaining ([1]; 1 mM compound, 24 minutes): 98% | Percent BANA remaining ([1]; 1 mM compound, 32 minutes): 99% | Percent BANA remaining ([1]; 1 mM compound, 70 minutes): 99% | Percent BANA remaining ([1]; 1 mM compound, 100 minutes): 98% | Percent BANA remaining ([1]; 1 mM compound, 145 minutes): 98% | Percent BANA remaining ([1]; 1 mM compound, 156 minutes): 97% | Percent BANA remaining ([1]; 1 mM compound, 247 minutes): 96% | Ability to inhibit trypsin (result in words) [1]: progressively inhibit trypsin in a concentration dependent manner

COc1ccc2c3c1O[C@H]1C(OC(=O)N4CCC(C(=O)NCCCC[C@H](NC(=O)CCCN(C)C(=O)Oc5ccc6c7c5O[C@H]5C(=O)CC[C@@]8(O)[C@@H](C6)N(CC6CC6)CC[C@]758)C(=O)NCCNC(=O)Cc5ccc(OC(=O)c6ccc(NC(=N)N)cc6)cc5)CC4CNC(=O)[C@@H](CCCNC(=N)N)NC(=O)CNC(C)=O)=CC[C@H]4[C@@H](C2)N(C)CC[C@]314.O=C(O)C(F)(F)F.O=C(O)C(F)(F)F.O=C(O)C(F)(F)F.O=C(O)C(F)(F)F (stereo partly drawn) [II-D-71c-NTX]
Release of hydrocodone and naltrexone on tampering (result in words) ([2]; 0.5M aqueous sodium hydroxide, 60° C., 300 minutes, LC/MS): release of the opioid agonist (e.g. hydrocodone) occurs concomitantly with the release of the opioid antagonist | Percent HC Released ([2]; time 0 (minutes)): 0% | Percent NTX Released ([2]; time 0 (minutes)): 0% | Percent HC Released ([2]; time 5 (minutes)): 2.52% | Percent NTX Released ([2]; time 5 (minutes)): 1.44% | Percent HC Released ([2]; time 10 (minutes)): 4.45% | Percent NTX Released ([2]; time 10 (minutes)): 2.0% | Percent HC Released ([2]; time 15 (minutes)): 6.27% | Percent NTX Released ([2]; time 15 (minutes)): 2.95% | Percent HC Released ([2]; time 20 (minutes)): 9.27% | Percent NTX Released ([2]; time 20 (minutes)): 3.69% | Percent HC Released ([2]; time 30 (minutes)): 13.99% | Percent NTX Released ([2]; time 30 (minutes)): 6.47% | Percent HC Released ([2]; time 60 (minutes)): 25.32% | Percent NTX Released ([2]; time 60 (minutes)): 14.41% | Percent HC Released ([2]; time 120 (minutes)): 37.9% | Percent NTX Released ([2]; time 120 (minutes)): 37.81% | Percent HC Released ([2]; time 300 (minutes)): 56.1% | Percent NTX Released ([2]; time 300 (minutes)): 60.25%

COc1ccc2c3c1OC1C(OC(=O)N4CCC(C(=O)NCCCCC(NC(C)=O)C(=O)NCCOc5ccc(C(=O)Oc6ccc7cc(C(=N)N)ccc7c6)cc5)CC4CNC(=O)C(CCCNC(=N)N)NC(=O)CNC(C)=O)=CCC4C(C2)N(C)CCC314 [II-D-11]
Percent BANA remaining ([1]; 1 uM compound, 2 minutes): 100% | Percent BANA remaining ([1]; 1 uM compound, 13 minutes): 39% | Percent BANA remaining ([1]; 1 uM compound, 24 minutes): 0% | Percent BANA remaining ([1]; 1 uM compound, 80 minutes): 0% | Percent BANA remaining ([1]; 1 uM compound, 102 minutes): 0% | Percent BANA remaining ([1]; 1 uM compound, 119 minutes): 0% | Percent BANA remaining ([1]; 1 uM compound, 234 minutes): 0% | Percent BANA remaining ([1]; 10 uM compound, 2 minutes): 100% | Percent BANA remaining ([1]; 10 uM compound, 13 minutes): 98% | Percent BANA remaining ([1]; 10 uM compound, 24 minutes): 96% | Percent BANA remaining ([1]; 10 uM compound, 80 minutes): 94% | Percent BANA remaining ([1]; 10 uM compound, 102 minutes): 93% | Percent BANA remaining ([1]; 10 uM compound, 119 minutes): 94% | Percent BANA remaining ([1]; 10 uM compound, 234 minutes): 87% | Percent BANA remaining ([1]; 100 uM compound, 2 minutes): 100% | Percent BANA remaining ([1]; 100 uM compound, 13 minutes): 98% | Percent BANA remaining ([1]; 100 uM compound, 24 minutes): 100% | Percent BANA remaining ([1]; 100 uM compound, 80 minutes): 99% | Percent BANA remaining ([1]; 100 uM compound, 102 minutes): 99% | Percent BANA remaining ([1]; 100 uM compound, 119 minutes): 99% | Percent BANA remaining ([1]; 100 uM compound, 234 minutes): 99% | Percent BANA remaining ([1]; 1 mM compound, 2 minutes): 100% | Percent BANA remaining ([1]; 1 mM compound, 13 minutes): 100% | Percent BANA remaining ([1]; 1 mM compound, 24 minutes): 99% | Percent BANA remaining ([1]; 1 mM compound, 80 minutes): 100% | Percent BANA remaining ([1]; 1 mM compound, 102 minutes): 100% | Percent BANA remaining ([1]; 1 mM compound, 119 minutes): 100% | Percent BANA remaining ([1]; 1 mM compound, 234 minutes): 100% | Ability to inhibit trypsin (result in words) [1]: progressively inhibit trypsin in a concentration dependent manner
